Laboratory results: paper PMC11079064, “Discovery of a brain penetrant small molecule antagonist targeting LPA1 receptors to reduce neuroinflammation and promote remyelination in multiple sclerosis” (Scientific Reports, 2024)
“Also recorded” adds a separate entry of the source.

Experiments:
human LPA1 = target: T1, human LPA1 (Homo sapiens, UniProt Q92633); test: Functional calcium mobilization assay; type: cell-based; settings: 24 h pre-incubation prior to LPA addition; read-out: Functional LPA1 Ca^+2 mobilization
T1 construct: expressed in transfected cells
Experimental: Intracellular calcium was monitored with Fluo-4 (Molecular Devices). Dye was made up in HBSS with 0.1% (w/v) BSA and 2.5 mM probenecid. Plates were read using a FlexStation 3 (Molecular Devices, Sunnyvale, CA). Calcium response was generated by the simultaneous addition of the EC80 of LPA.
On the day of assay, media was removed and replaced with dye and 3× fresh compound in HBSS−/− with 0.1% BSA and incubated for 1 h.
30-min assay: Antagonists were added to plates after dye loading was complete at a 3× concentration in HBSS−/− with 0.1% BSA and incubated for 30 min.

[1] = test system: off-target panel (SAFETYscan E/IC50 ELECT); test: Eurofins off-target panel (SAFETYscan E/IC50 ELECT); settings: test concentration 30 µM
Text: Supplemental Figure 1. Results from Eurofins SAFETYscan E/IC50 ELECT.

[2] = test system: CC1+/OLIG2+ oligodendrocytes; test: In vivo CC1 induction assay; set-up: species or system mouse; settings: single 3 mg/kg dose, brains collected 5 days later
Text: Sections were immunostained for the mature oligodendrocyte marker, CC1, and the oligodendroglial marker, OLIG2 to represent the total OPC/oligodendrocyte population.
Female C57Bl/6 mice (9–11 weeks old) were used in this experiment, n = 5/group. […] On day 5, mice were sacrificed and brains submerged in formalin. Tissue was sectioned at 40 µm on a sliding microtome (ThermoFisher, Microm HM450, Waltham, MA). Four sections per mouse were immunostained. Sections were permeabilized and blocked by incubation with 20% goat serum (Millipore Sigma, St. Louis, MO) and 0.2% Triton X-100 (Millipore Sigma, St. Louis, MO) in PBS. Oligodendrocytes were detected with a rat monoclonal antibody to Anti-APC (1:500, Calbiochem, San Diego, CA), and the total pool OPC/oligodendrocyte pool were detected with a rabbit monoclonal antibody to Olig-2 (1:500, Invitrogen, Carlsbad, CA). Alexa Fluor 594 and 647 IgG secondary antibodies against rat and rabbit (1:1000, Invitrogen, Carlsbad, CA) were used for primary antibody detection. Cell nuclei were identified with Hoechst (1:1000, Invitrogen, Carlsbad, CA). […] Detection and quantification of the cells were performed using NIS Elements imaging software (Nikon, Minato, Tokyo).
Supplemental Figure 5. […] Sections were immunostained using antibodies against CC1 (mature oligodendrocytes), Olig2 (oligodendroglial marker), and counterstained with Hoechst. […]

[3] = test system: human cortical slice cultures; test: Human cortical slice culture, CC1+ cells by immunohistochemistry; type: cell-based
Experimental: Human donor brain was received 14 h after death on wet ice. Upon receipt, the brain was immediately placed into-ice cold DPBS without calcium or magnesium. Cortical regions containing gray-white border were isolated then sliced on a McIlwain tissue chopper set at 400 µm thickness. […] Slices were then processed for qPCR or immunohistochemistry.
Immunohistological evaluation of oligodendrocytes in human brain slice culture: After compound treatment, slices were fixed in 4% PFA overnight. Slices were gently lifted from the membrane insert and washed with at least five 15 min washes in DPBS containing 0.5% Triton-X 100 (0.5%-DPBS) followed by overnight incubation in primary antibodies in blocking solution. Antibodies used were CC-1 (mouse, 1:250, Millipore, Temecula, CA), Olig2 (rabbit 1:250 CellMarque). Slices were washed with at least five 15 min washes in 0.5%-DPBS followed by incubation with secondary antibodies (anti-mouse Alexa488; anti-rabbit, Alexa568, and Hoechst counterstain) in 0.5%-DPBS. All secondary antibodies were produced in goat (Invitrogen, Carlsbad, CA, Carlsbad, CA) and used at 1:250. Filters were excised from insert, mounted with Fluoromount (Millipore Sigma, St. Louis) on a microscope slide and coverslipped. 2 images per slice were acquired using a Nikon A1R confocal microscope and NIS-Elements software. Images were thresholded and counted using ImageJ.

microglia = test: LPA-induced microglial activation in hippocampal slices; type: cell-based, mouse; settings: 3 µM, 10 µM LPA
Experimental: Microglial activation was then triggered by the addition of 10 µM LPA, slices incubated for 3 additional hours, then fixed. Slices were immunostained against IBA1 and microglial perimeters were measured as a mean of differentiating between ramified/resting versus rounded/activated microglia.
Brains were harvested from mice (postnatal day 20, Charles River). […] 400 µm thick coronal slices were cut on a McIlwain tissue chopper and returned to dissection media and separated manually. […] Slices were incubated for 2 h at 37 °C (4 slices per condition). Microglial activation was initiated by adding LPA (18:1, Avanti Polar Lipids) to a final concentration of 10 µM and incubated for 3 h. Slices were then fixed in formalin and for 2 h.
For immunohistochemistry, slices were washed for 3 × 15 min in 0.5% Triton-X100 and DPBS. Slices were then stained using IBA-1 antibody (Thermo Scientific) in 10% normal goat serum with 0.5% Triton-X100 in DPBS overnight on a rocker. Slices were then washed in 0.5% Triton-X100 in DPBS 3 × 15 min. Goat anti-mouse Alexa 564 (1:500, Invitrogen, Carlsbad, CA) and […] (Invitrogen, Carlsbad, CA) were diluted in DPBS with 0.5% Triton-X100 and incubated for 2h. Slices were washed 3 × 15 min in DPBS with 0.5% Triton-X100, mounted with Fluoromount and imaged on a Nikon A1R confocal microscope.

[4] = test system: human brain meningeal fibroblasts; test: LPA-induced activation of human meningeal fibroblasts (COL1+ area); type: cell-based; settings: LPA stimulation, read-out: IC50 of inhibition of increase in COL1+ area
Experimental: Recent work from Dorrier et al., has implicated persistent fibrotic scarring in the CNS in the mouse EAE model and that the contributing cells were of meningeal origin. […] We cultured primary rat or human brain meningeal fibroblasts and applied 10 µM LPA to induce activation. Upon LPA stimulation, we saw a change in morphology that could be quantified as a change in collagen I (COL1^+) area.
Meningeal fibroblasts were obtained from IxCells (San Diego, CA) and plated at 5000 cells per well according to manufacturer's protocol. […] Cells were stained and imaged as described with rat meningeal fibroblasts.
Supplemental Figure 8. […] A. Rat primary meningeal fibroblasts were isolated and serum starved overnight. […] Cells were fixed and immunostained with a collagen 1a1 antibody (green) and counterstained with Hoechst (blue). […] Cells were fixed and immunostained with a collagen I antibody (green) and counterstained with Hoechst (blue). […] C. […] Collagen 1a1 (green), Hoechst (blue). Scale bar 50 µm. One-way ANOVA with Dunnett’s; * p<0.05, ** p<0.01, *** p<0.001, **** p<0.0001.

T1 sequence (Q92633 whole entry): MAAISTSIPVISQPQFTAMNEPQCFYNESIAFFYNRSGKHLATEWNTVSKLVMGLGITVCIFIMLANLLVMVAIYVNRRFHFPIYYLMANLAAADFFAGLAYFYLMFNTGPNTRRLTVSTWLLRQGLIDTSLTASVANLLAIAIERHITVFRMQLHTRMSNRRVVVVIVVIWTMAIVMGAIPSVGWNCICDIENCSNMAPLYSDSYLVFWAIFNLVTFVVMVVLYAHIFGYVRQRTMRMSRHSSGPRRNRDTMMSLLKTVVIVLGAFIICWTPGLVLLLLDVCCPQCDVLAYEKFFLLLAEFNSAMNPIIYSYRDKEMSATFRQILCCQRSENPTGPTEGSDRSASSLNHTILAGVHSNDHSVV

COc1ccc(NC(=O)N(c2ccccc2C(C)C)C2CCC(C(=O)O)CC2)c(OC(F)F)n1 (stereo not shown) [PIPE-791]
IC50 (human LPA1): 9.9 nM | off-target activities [1]: no appreciable activities | increase in CC1+/OLIG2+ oligodendrocytes [2]: 163% | CC1+ cells ([3]; 100 nM): significant increase | differentiation by number of CC1+ cells ([3]; 300 nM): significant differentiation | effect on LPA-induced decrease in microglial perimeter length (microglia): inhibited; also recorded: prevented | IC50 [4]: 4.5 nM
